The values below come from US20240075050A1, “Methods and Compositions for Treating Leucine Rich Repeat Kinase 2 (LRRK2)-Associated Disorder or Condition” (University of Connecticut, priority 2022, published 2024).

Data set [1] relates to LRRK2. Briefly: Endogenous LRRK2 levels in SH-SY5Y cells, Western blot. The format is cell-based, human. For orientation: In western blotting, separated proteins are transferred to a membrane and probed.
The conditions of data set [2]: stated as reason for using the precursor AICAr; cited from earlier work.
Data set [3] deals with [α-32P]cap-labeled LRRK2 RNA. Briefly: In vitro decapping assay. The format is biochemical, human. The settings on record: recombinant Flag-tagged protein from HEK 293T cells, thin layer chromatography.

On to `N#Cc1c(O)c2c(-c3ccc(-c4ccccc4O)cc3)csc2[nH]c1=O` [A769662], for which the LRRK2 levels entry in data set [1] (SH-SY5Y, 10, 20, or 50 μM A769662, 48 hours) was “no obvious effects”.

Consider `Nc1ncnc2nc(-c3ccc(N4CCOCC4)nc3)cc(-c3cccc(Br)c3)c12` [ABT-702], for which, in data set [1] (SH-SY5Y, 1 mM AICAr plus 1 μM ABT-702, 48 hours), the “effect of AICAr on LRRK2 levels in the presence of ABT-702” value was “completely counteracted”.

Take `NC(=O)c1ncn([C@@H]2O[C@H](COP(=O)(O)O)[C@@H](O)[C@H]2O)c1N` [AICAR/ZMP, 5-aminoimidazole-4-carboxamide ribonucleotide]: the membrane permeability result in data set [2] is “membrane impermeable”.

As for `O=[N+]([O-])c1ccc(CSc2ncnc3c2ncn3[C@@H]2O[C@H](CO)[C@@H](O)[C@H]2O)cc1` [NBTI], the “effect of AICAr on LRRK2 levels in the presence of NBTI” value in data set [1] (SH-SY5Y, 1 mM AICAr plus 50 μM NBT-1, 48 hours) is recorded as “completely abolished”.

With “DCP2: recombinant Flag-tagged decapping enzyme purified from HEK 293T cells”, the “LRRK2 mRNA decapping activity (m7GDP level)” value in data set [3] was “decapped LRRK2 mRNA”.

B1: DCP1A: recombinant Flag-tagged decapping enzyme purified from HEK 293T cells (protein, UniProt Q9NPI6 1-582, looked up)
mRNA-decapping enzyme 1A: MEALSRAGQEMSLAALKQHDPYITSIADLTGQVALYTFCPKANQWEKTDIEGTLFVYRRSASPYHGFTIVNRLNMHNLVEPVNKDLEFQLHEPFLLYRNASLSIYSIWFYDKNDCHRIAKLMADVVEEETRRSQQAARDKQSPSQANGCSDHRPIDILEMLSRAKDEYERNQMGDSNISSPGLQPSTQLSNLGSTETLEEMPSGSQDKSAPSGHKHLTVEELFGTSLPKEQPAVVGLDSEEMERLPGDASQKEPNSFLPFPFEQLGGAPQSETLGVPSAAHHSVQPEITTPVLITPASITQSNEKHAPTYTIPLSPVLSPTLPAEAPTAQVPPSLPRNSTMMQAVKTTPRQRSPLLNQPVPELSHASLIANQSPFRAPLNVTNTAGTSLPSVDLLQKLRLTPQHDQIQTQPLGKGAMVASFSPAAGQLATPESFIEPPSKTAAARVAASASLSNMVLAPLQSMQQNQDPEVFVQPKVLSSAIPVAGAPLVTATTTAVSSVLLAPSVFQQTVTRSSDLERKASSPSPLTIGTPESQRKPSIILSKSQLQDTLIHLIKNDSSFLSTLHEVYLQVLTKNKDNHNL
modifications: Flag tag
notes: recombinant Flag-tagged decapping enzyme purified from HEK 293T cells
As for B1, the “LRRK2 mRNA decapping activity (m7GDP level)” value in data set [3] is “decapped LRRK2 mRNA”.
